# Assay results from patent US12560054B2, “Use of carboxylates for carbon sequestration, improved oil recovery, and hydrogen storage and reproduction” (Board of Regents, The University of Texas System, priority 2021, dated 2026).
# Where two headings read alike, the source gives them in different places.
# What was measured:
# [1] = 347 K
# Method: Contact Angle Experiments. Contact angle experiments were performed on calcite surfaces and Eagle Ford shale plates. […] After cutting the plates in the appropriate sizes, they were polished with a diamond grinder to result in a smooth surface. […] The pH values of the chemical solutions were measured before and after the experiment. […] The final pH level was adjusted to correspond to the glycine solution at the same concentration. […] Then, to start the experiment, the rock pieces were immersed in the solution and then oil droplets were placed at the bottom of the rock pieces. The solution chambers were put in the oven for equilibration. Then, images of the oil droplets were taken. A new oil droplet was placed after a certain number of days and the images were taken after equilibration. Contact angles reported in figures are the equilibrium contact angles. For example, if data is reported from day 7, that data is the final equilibrated contact angle of the droplet placed on day 7. Contact angles were measured from photos with the on-screen protractor software.
# [2] = with RB at reservoir and room temperatures
# [3] = pH measurements before and after the contact angle experiments with calcite; type: physicochemical; settings: room temperature; for pH After: after contact angle experiment with calcite; for pH Before: before contact angle experiment
# Method: RB was made first by adding salts and adjusting the total mass of the solution to 1 kg with deionized water. […] For solutions with HCl, HCl was added to solutions of formate and acetate at room temperature while stirring slowly. […] After aqueous solutions were prepared and degassed, they were placed in an oven at the desired reservoir temperature (347 K for calcite and 337 for Eagle Ford shale).
# [4] = 337 K
# Method: Contact Angle Experiments. Contact angle experiments were performed on calcite surfaces and Eagle Ford shale plates. […] After cutting the plates in the appropriate sizes, they were polished with a diamond grinder to result in a smooth surface.
# RB was made first by adding salts and adjusting the total mass of the solution to 1 kg with deionized water. […] The final pH level was adjusted to correspond to the glycine solution at the same concentration. […]
# After being aged in heavy oil for at least 3 weeks, the calcite or shale pieces were retrieved, and the excess oil was removed from the surfaces carefully. Then, to start the experiment, the rock pieces were immersed in the solution and then oil droplets were placed at the bottom of the rock pieces. The solution chambers were put in the oven for equilibration. Then, images of the oil droplets were taken. A new oil droplet was placed after a certain number of days and the images were taken after equilibration. Contact angles reported in figures are the equilibrium contact angles. For example, if data is reported from day 7, that data is the final equilibrated contact angle of the droplet placed on day 7. Contact angles were measured from photos with the on-screen protractor software.
# A similar procedure was followed for another set of experiments with Eagle Ford shale plates.
# [5] = room temperature; cited from earlier work
# [6] = near-saturated 45% (% w/w) sodium formate in water, 20 °C; cited from earlier work
# [7] = Viscosity and density of formate solutions in NaCl+CaCl2 brine; type: physicochemical; settings: solutions in the brine at 25, 50 and 75 °C over a wide range of shear rates
# Method: Viscosity Measurements. […] A double wall couette geometry was used for the measurement. The viscosity measurements were taken at 25, 50, and 75° C. The sodium formate solutions were prepared and allowed to equilibrate in an oven set at the target temperature.
# For viscosity measurements at 50 and 75° C., the temperature of the holding cup was raised to the target temperature using the circulating bath before putting the solution into the rheometer's sample holding cup.
Structure (SMILES),"contact angle reduction on calcite ([1]; without HCl, in RB)",aqueous stability [2],pH After ([3]; 0.5 wt % in RB),pH Before ([3]; 0.5 wt % in RB),pH After ([3]; 1 wt % in RB),pH Before ([3]; 1 wt % in RB),pH After ([3]; 2.5 wt % in RB),pH Before ([3]; 2.5 wt % in RB),pH After ([3]; 5 wt % in RB),pH Before ([3]; 5 wt % in RB),final contact angle on Eagle Ford shale plates ([4]; 5 wt % in RB with HCl),final contact angle on Eagle Ford shale plates ([4]; 5 wt % in RB without HCl),"contact angle on calcite ([1]; with HCl (pH adjusted to glycine level), in RB)","contact angle on calcite ([1]; without HCl, 0.5-5 wt % in RB)","contact angle on calcite ([1]; 2.5 and 5 wt % in RB, reached over time) [°]",isoelectric point (pI) [5],reported viscosity [6] [cp],rheological behavior [7]
"CC(=O)[O-].[Na+] [acetate, Sodium Acetate]",did not significantly reduce the contact angle,confirmed,8.04,8.15,7.89,8.31,7.87,8.44,7.85,8.64,approximately 60 °,about 80 °,,,,,,
O=CO [formate],,confirmed,8.26,8.07,8.22,7.96,8.05,8.12,7.96,8.11,approximately 60 °,about 80 °,50-60 °,approximately 80 °,,,,
"NCC(=O)O [glycine, reference compound]",,,7.94,6.68,7.73,6.42,7.53,6.24,7.62,6.10,,60 °,,,~40,5.97,,
O=C[O-].[Na+] [sodium formate],,,,,,,,,,,,,,,,,9.5,Newtonian behavior
